Values after ≈ are worked out from the molar mass of the structure shown.
Tested on: 3T3-L1 mouse adipocyte cells
Assay: Adipogenesis inhibition, Oil Red-O staining of adipocytes
Format: cell-based
Settings: Table 1, 3T3-L1 mouse adipocytes, OD 492 nm, read-out: Adipogenesis inhibitory activity (IC50)
From the text: Adipogenesis, or the development of fat cells from preadipocytes, has been one of the most intensely studied models for obesity. A fat cell develops as internally produced lipid droplets coalesce into a single large mass. The in vitro adipogenesis inhibitory model can recapitulate most of the critical aspects of fat cell formation in vivo.
A common assay to measure adipocyte differentiation in cell culture is with the dye Oil Red-O, which is a lipid-soluble red dye. Since terminal differentiation of adipocytes is accompanied by the accumulation of great amounts of lipids in large cytoplasmic vesicles, a strong, bright, staining of the cytoplasm with this dye is a reliable indicator of adipocyte differentiation.
3T3-L1 mouse adipocyte cells are seeded at a density of 5000 cell/200 μl of adipocyte induction medium in a 96 well plate. After 48 hrs, sample is added. After 72 hrs, the medium is changed to adipocyte progression medium along with the sample. The medium is similarly changed after another 48 hours. The plates are washed gently after 48 hrs with 100 μl of PBS. […] The OD reading is taken at 492 nm in microplate reader.
The results are expressed as IC50 values using Graphpad prism software. The percentage of inhibition of adipogenesis is calculated as follows,
[formula] Where C—absorbance due to adipogenesis in untreated cells • T—absorbance due to adipogenesis in sample treated cells

Row | Structure (SMILES) | IC50 [µg/mL]
1 | C=C(C)[C@@H](CC=C(C)C)C[C@@]12C[C@@H](CC=C(C)C)C(C)(C)[C@@](CC=C(C)C)(C(=O)C(C(=O)c3ccc(O)c(O)c3)=C1O)C2=O [Garcinol] | 0.2 (≈ 0.332 µM)
2 | COc1cc(C=Cc2ccc(O)cc2)cc(OC)c1 [Pterostilbene, 3,5-dimethoxy-4′-hydroxystilbene] | 13.3 (≈ 52 µM)

Source: patent US8329743B2, “Compositions and its use in treating obesity or inducing weight loss” (Sami Labs Limited, priority 2011, dated 2012)
